Laboratory results taken from PubChem BioAssay AID2060509 (Molecular Pharmacology Branch, DTP, NCI, 2025).

Test system: 485176-168-R4-J1-PDC spheroids with HUVEC/MSC, viability
Experiment: Anticancer human tumor 485176-168-R4-J1-PDC patient-derived pancreatic adenocarcinoma cell line growth inhibition [GQUAD]
Settings: for IC50: curve of first compound; for viability, T/C: stronger effect = lower value
Source text: DNA G-quadruplex Stabilizer Agents in Combinations in Complex Spheroids
A high-throughput screen of multi-cell type tumor spheroids was designed to identify active combinations of DNA G-quadruplex stabilizer agents and targeted small molecules. Complex spheroids include a stromal component modeled by human endothelial cells (HUVEC) and fibroblasts modeled by human mesenchymal stem cells (MSCs). The concentration ranges selected for each drug and investigational agent were based upon clinically achievable concentrations if the clinical Cmax of the agent was known.
Compounds. The drugs and investigational agents: pidnarulex (CX-5461; NSC782164), APTO-253 (NSC789042), BRACO-19 (NSC847499), peposertib (NSC802822), ceralasertib (NSC780249), elimusertib (NSC800525), camonsertib (NSC841442), AZD-1390 (NSC803789), olaparib (NSC753686), talazoparib (NSC767125), ART-558 (NSC835418), sotorasib (NSC818433), MRTX-1133 (NSC836407), SN-38 (NSC673596), topotecan (NSC609699), etoposide (NSC141540), doxorubicin (NSC123127), gemcitabine (NSC613327), 5-fluorouracil (NSC19893), paclitaxel (NSC125973), vemurafenib (NSC761431), panobinostat (NSC761190), R-306465 (JNJ-16241199; NSC773264), adavosertib (NSC754352), TP-3654 (NSC805149), carboplatin (NSC241240), KSQ-4279 (NSC840948), and staurosporine (NSC755774) were obtained from the National Cancer Institute (NCI) Developmental Therapeutics Program Chemical Repository (34). The FDA-approved anticancer drug set is available from the NCI Developmental Therapeutics Program. […] The stock solutions were prepared in dimethyl sulfoxide (DMSO, Sigma-Aldrich, St. Louis, MO, cat. D2650) at 800-fold the tested concentration and stored at -70 degrees C prior to their use. All drugs and investigational agents were tested over a range starting from a high concentration at or near the clinical Cmax and decreasing in half-log increments. If the clinical Cmax for an agent had not been determined, the highest concentration tested was 10 microM.
2.3 Cell Culture. All cells were maintained in an incubator at 37 degrees C and 5% CO2 with 95% humidity. The PDC lines were cultured according to standard operating procedures established by the NCI PDMR. All PDCs were thawed and cultured in Matrigel-coated flasks prepared with a working solution of 1X Ham's F-12 nutrient mix, without supplementation (Invitrogen, cat. 11765054), 100 U/mL penicillin-streptomycin (Invitrogen, cat. 15140122), and 2.5% Matrigel (Corning Inc., cat. 354248) for the first three passages. The 857933-349-R-J2-PDC line was cultured in 6C/Colon 1B media, which includes advanced DMEM/F-12 (Thermo Fisher Scientific, cat. 12634028), 10 mM HEPES (Thermo Fisher Scientific, cat. 15630080), 1X GlutaMAX supplement (Thermo Fisher Scientific, cat. 35050061), 0.1 mg/mL primocin (InvivoGen, cat. ant-pm-2), 10% defined fetal bovine serum, heat inactivated (HyClone Laboratories Inc., cat. SH30070.03HI), 50% L-WRN conditioned media (ATCC, cat. CRL-3276), 1.25 mM N-Acetyl-L-cysteine (Sigma-Aldrich, cat. A9165), 10 mM nicotinamide (Sigma-Aldrich, cat. N0636), 1X B-27 supplement (Thermo Fisher Scientific, cat. 17504044), 1X N-2 supplement (Thermo Fisher Scientific, cat. 17502048), 10 microM Y-27632 dihydrochloride (Tocris Bioscience, cat. 1254), and 50 ng/mL human EGF recombinant protein (Thermo Fisher Scientific, cat. PHG0311). The 485176-168-R4-J1-PDC line was cultured in Panc media, which includes all 6C/Colon 1B media components plus 100 ng/mL human FGF-10 (Thermo Fisher Scientific, cat. 100-26), 500 nM SB-431542 (Selleckchem, cat. S1067), and gastrin (Tocris, cat. 3006).
[…]
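Also: spheroids exposed to compounds for seven days before readout.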
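For viability, T/C in this document: percent viability relative to DMSO vehicle control wells as 100%.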

CC(=O)O[C@H]1C(=O)[C@@]2(C)[C@H]([C@H](OC(=O)c3ccccc3)[C@]3(O)C[C@H](OC(=O)[C@H](O)[C@@H](NC(=O)c4ccccc4)c4ccccc4)C(C)=C1C3(C)C)[C@]1(OC(C)=O)CO[C@@H]1C[C@@H]2O + Cc1cnc(CNC(=O)c2c(=O)c3ccc(N4CCCN(C)CC4)nc3n3c2sc2ccccc23)cn1
IC50 (second compound 0.0316 µM): < 31.6 nM
IC50 (second compound 0.1 µM): < 31.6 nM
IC50 (second compound 0.316 µM): < 31.6 nM
IC50 (second compound 1 µM): < 31.6 nM
IC50 (second compound 3.16 µM): < 31.6 nM
IC50 (second compound 10 µM): < 31.6 nM
viability, T/C (second compound 0.0316 µM, first compound 0.0316 µM): 30%
viability, T/C (second compound 0.0316 µM, first compound 0.1 µM): 13.6%
viability, T/C (second compound 0.0316 µM, first compound 0.316 µM): 11.2%
viability, T/C (second compound 0.0316 µM, first compound 1 µM): 12.7%
viability, T/C (second compound 0.0316 µM, first compound 3.16 µM): 10.6%
viability, T/C (second compound 0.0316 µM, first compound 10 µM): 9.91%
viability, T/C (second compound 0.1 µM, first compound 0.0316 µM): 27.1%
viability, T/C (second compound 0.1 µM, first compound 0.1 µM): 19%
viability, T/C (second compound 0.1 µM, first compound 0.316 µM): 12%
viability, T/C (second compound 0.1 µM, first compound 1 µM): 12.8%
viability, T/C (second compound 0.1 µM, first compound 3.16 µM): 11.7%
viability, T/C (second compound 0.1 µM, first compound 10 µM): 9.87%
viability, T/C (second compound 0.316 µM, first compound 0.0316 µM): 22%
viability, T/C (second compound 0.316 µM, first compound 0.1 µM): 14.2%
viability, T/C (second compound 0.316 µM, first compound 0.316 µM): 10.4%
viability, T/C (second compound 0.316 µM, first compound 1 µM): 11.8%
viability, T/C (second compound 0.316 µM, first compound 3.16 µM): 13.8%
viability, T/C (second compound 0.316 µM, first compound 10 µM): 12.9%
viability, T/C (second compound 1 µM, first compound 0.0316 µM): 23.1%
viability, T/C (second compound 1 µM, first compound 0.1 µM): 17.3%
viability, T/C (second compound 1 µM, first compound 0.316 µM): 17.5%
viability, T/C (second compound 1 µM, first compound 1 µM): 11.9%
viability, T/C (second compound 1 µM, first compound 3.16 µM): 11.8%
viability, T/C (second compound 1 µM, first compound 10 µM): 14.7%
viability, T/C (second compound 3.16 µM, first compound 0.0316 µM): 26%
viability, T/C (second compound 3.16 µM, first compound 0.1 µM): 17.8%
viability, T/C (second compound 3.16 µM, first compound 0.316 µM): 12.8%
viability, T/C (second compound 3.16 µM, first compound 1 µM): 12.8%
viability, T/C (second compound 3.16 µM, first compound 3.16 µM): 15.3%
viability, T/C (second compound 3.16 µM, first compound 10 µM): 12.7%
viability, T/C (second compound 10 µM, first compound 0.0316 µM): 23.4%
viability, T/C (second compound 10 µM, first compound 0.1 µM): 14.8%
viability, T/C (second compound 10 µM, first compound 0.316 µM): 14.5%
viability, T/C (second compound 10 µM, first compound 1 µM): 12.9%
viability, T/C (second compound 10 µM, first compound 3.16 µM): 12.8%
viability, T/C (second compound 10 µM, first compound 10 µM): 11.2%
